Biological target: T1, human AMPK α1β1γ1 enzyme (Homo sapiens, UniProt Q13131+Q9Y478)
T1 construct: purchased Carna Biosciences, Inc
Assay: AMPK activator evaluation, Test Example 1 (mobility shift, FL-Peptide 7)
Assay type: biochemical
Conditions: human AMPK α1β1γ1, control without compound = 100%; for Emax: read-out: Emax (maximum rate of increase in activity within the measurement range)
Procedure: To a buffer solution consisting of a 50 mM HEPES-NaOH buffer solution (pH 7.0), 100 mM NaCl, 10 mM magnesium chloride, 0.1% bovine serum albumin, 0.2 mM sodium orthovanadate(V), 1 mM ethylene glycol-bis(2-aminoethyl ether)-N,N,N′,N′-tetraacetic acid (EGTA), 5 mM disodium (3-glycerophosphate and 2 mM dithiothreitol, a human AMPK α1β1γ1 enzyme (manufactured by Carna Biosciences, Inc.) was added in an amount to give a conversion rate of approximately 10% by reaction for 2 hours, and a compound dissolved in DMSO was added thereto so as to have a 1% DMSO concentration. The obtained liquid was left to stand for 10 minutes.
To the liquid, a substrate solution consisting of a 50 mM HEPES-NaOH buffer solution (pH 7.0), 100 mM NaCl, 10 mM magnesium chloride, 0.1% bovine serum albumin, 0.2 mM sodium orthovanadate(V), 1 mM ethylene glycol-bis(2-aminoethyl ether)-N,N,N′,N′ tetraacetic acid (EGTA), 5 mM disodium β-glycerophosphate, 2 mM dithiothreitol, 0.4 mM ATP and 3 μM FL-Peptide 7 (manufactured by Caliper Life Sciences, Inc.) was added in equal amount (10 μl in total). The obtained liquid was allowed to react at 25° C. for 2 hours, and 10 μl of 20 mM EDTA was then added thereto to stop the reaction.
To detect phosphorylated fluorescent substrates, the reaction liquid was applied to a measuring device, LabChip EZ Reader II manufactured by Caliper Life Science, Inc., for detecting fluorescence by using differences in mobility due to differences in charge. The setting conditions for the device were pressure, −1.5 PSI; upstream voltage, −2250 V; downstream voltage, −400 V; post sample buffer sip time, 40 seconds; final delay, 120 seconds; and peak order, Product First.

T1 sequence (Q13131 10-559 limits assumed): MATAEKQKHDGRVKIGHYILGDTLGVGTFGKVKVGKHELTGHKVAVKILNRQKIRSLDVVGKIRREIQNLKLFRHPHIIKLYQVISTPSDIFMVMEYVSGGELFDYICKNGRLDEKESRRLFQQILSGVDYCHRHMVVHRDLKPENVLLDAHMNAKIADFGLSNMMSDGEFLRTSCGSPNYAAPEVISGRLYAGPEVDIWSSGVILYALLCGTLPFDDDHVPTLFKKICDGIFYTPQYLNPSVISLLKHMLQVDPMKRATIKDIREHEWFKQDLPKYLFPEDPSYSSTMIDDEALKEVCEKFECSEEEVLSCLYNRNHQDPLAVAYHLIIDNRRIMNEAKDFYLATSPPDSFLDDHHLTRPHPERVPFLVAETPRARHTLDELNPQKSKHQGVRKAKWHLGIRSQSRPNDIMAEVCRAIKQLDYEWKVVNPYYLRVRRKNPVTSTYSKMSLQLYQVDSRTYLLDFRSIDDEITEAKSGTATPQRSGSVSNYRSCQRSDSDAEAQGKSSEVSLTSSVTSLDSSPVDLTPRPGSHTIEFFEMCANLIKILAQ
T1 sequence (Q9Y478 whole entry): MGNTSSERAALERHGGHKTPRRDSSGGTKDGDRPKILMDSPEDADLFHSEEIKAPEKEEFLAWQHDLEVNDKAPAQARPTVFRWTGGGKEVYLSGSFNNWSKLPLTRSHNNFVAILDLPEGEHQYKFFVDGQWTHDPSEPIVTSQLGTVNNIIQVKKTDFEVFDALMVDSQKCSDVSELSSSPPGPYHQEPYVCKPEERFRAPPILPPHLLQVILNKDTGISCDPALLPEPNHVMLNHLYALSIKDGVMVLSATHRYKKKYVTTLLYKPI
T1 sequence (P54619 whole entry partner): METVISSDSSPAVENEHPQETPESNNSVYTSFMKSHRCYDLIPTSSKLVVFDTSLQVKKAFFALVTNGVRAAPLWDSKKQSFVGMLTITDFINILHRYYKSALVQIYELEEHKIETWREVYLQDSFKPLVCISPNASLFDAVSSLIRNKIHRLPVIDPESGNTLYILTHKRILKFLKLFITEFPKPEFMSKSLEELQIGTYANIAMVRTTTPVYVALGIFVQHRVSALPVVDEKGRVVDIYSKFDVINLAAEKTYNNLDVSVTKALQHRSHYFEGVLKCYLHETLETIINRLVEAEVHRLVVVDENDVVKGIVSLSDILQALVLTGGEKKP

Structure (SMILES) | EC150 (compound concentration showing 150% relative to the control) [nM] | Emax [%]
O=C(O)CCc1ccc(Oc2nc3nc(-c4ccc(N5CCOCC5)cc4)c(Cl)cc3[nH]2)cc1 [Compound B-136] | 27 | 333
OCCc1ccc(Oc2nc3nc(-c4ccc(N5CCOCC5)cc4)c(Cl)cc3[nH]2)cc1 [Compound B-137] | 25 | 301
O=C1CCc2ccc(Oc3nc4nc(-c5ccc(N6CCOCC6)cc5)c(Cl)cc4[nH]3)cc2N1 [Compound B-141] | 61 | 319
Clc1cc2[nH]c(Oc3cccc(-c4nnn[nH]4)c3)nc2nc1-c1ccc(N2CCOCC2)cc1 [Compound C-1] | 66 | 295
Cc1ccc(Oc2nc3nc(-c4ccc(N5CCOCC5)cc4)c(Cl)cc3[nH]2)cc1C(=O)NC#N [Compound C-9] | 33 | 322
CC(C)(C(=O)O)c1ccc(Oc2nc3nc(-c4ccc(N5CCCC5)cc4)c(Cl)cc3[nH]2)cc1 [Compound C-11] | 7.4 | 356
Cc1ccc(Oc2nc3nc(-c4ccc(OCC(C)(C)O)cc4)c(Cl)cc3[nH]2)cc1C(=O)O [Compound C-21] | 36 | 338
COc1ccc(Oc2nc3nc(-c4ccc(N5CCOCC5)cc4)c(Cl)cc3[nH]2)cc1C(=O)O [Compound C-24] | 17 | 237
COc1ccc(-c2ccc(-c3nc4nc(Oc5ccc(C)c(C(=O)O)c5)[nH]c4cc3Cl)cc2)cc1 [Compound C-29] | 8.3 | 349
O=C(O)c1cc(Oc2nc3nc(-c4ccc(N5CCOCC5)cc4)c(Cl)cc3[nH]2)ccc1Cl [Compound C-32] | 68 | 253
Cc1ccc(Oc2nc3nc(-c4ccc(OCC(C)C)cc4)c(Cl)cc3[nH]2)cc1C(=O)O [Compound C-33] | 52 | 329
Cc1ccc(Oc2nc3nc(-c4ccc(C5(CO)CC5)cc4)c(Cl)cc3[nH]2)cc1C(=O)O [Compound C-37] | 1.3 | 349
CC(C)(C(=O)O)c1ccc(Oc2nc3nc(-c4ccc(N5CCCC5)cc4)c(F)cc3[nH]2)cc1 [Compound C-39] | 35 | 279
Cc1ccc(Oc2nc3nc(-c4ccc(C(C)(C)O)cc4)c(Cl)cc3[nH]2)cc1C(=O)O [Compound C-63] | 16 | 331
CCc1ccc(Oc2nc3nc(-c4ccc(N5CCOCC5)cc4)c(Cl)cc3[nH]2)cc1C(=O)O [Compound C-70] | 4.2 | 335
Cc1ccc(Oc2nc3nc(-c4ccc(N5CCCCC5=O)cc4)c(Cl)cc3[nH]2)cc1C(=O)O [Compound C-88] | 120 | 298
CCc1ccc(Oc2nc3nc(-c4ccc(N5CCOCC5)cc4)c(Cl)cc3[nH]2)cn1 [Compound C-89] | 470 | 242
Cc1ccc(Oc2nc3nc(C#Cc4ccccc4)c(Cl)cc3[nH]2)cc1C(=O)O [Compound C-95] | 17 | 309
Cc1ccc(Oc2nc3nc(-c4ccc(N5CCOCC5)cc4)c(C(F)(F)F)cc3[nH]2)cc1C(=O)O [Compound C-96] | 99 | 326

Structure (SMILES) | EC150 (compound concentration showing 150% relative to the control) [nM] | Emax [%]
CC(C)(C(N)=O)c1ccc(Oc2nc3nc(-c4ccc(N5CCOCC5)cc4)c(Cl)cc3[nH]2)cc1 [Compound C-98] | 1700 | 165
CC(C)(CO)c1ccc(Oc2nc3nc(-c4ccc(N5CCOCC5)cc4)c(Cl)cc3[nH]2)cc1 [Compound C-99] | 170 | 205
COc1ccc(Oc2nc3nc(-c4ccc(N5CCOCC5)cc4)c(Cl)cc3[nH]2)cn1 [Compound C-100] | 590 | 212
CC(C)(C(=O)NCCO)c1ccc(Oc2nc3nc(-c4ccc(N5CCOCC5)cc4)c(Cl)cc3[nH]2)cc1 [Compound C-107] | 300 | 232
O=P(O)(O)c1cccc(Oc2nc3cc(Cl)c(-c4ccc(N5CCOCC5)cc4)nc3[nH]2)c1 [Compound C-118] | 2.1 | 334
CC(=O)NC(C)(C)c1ccc(Oc2nc3nc(-c4ccc(N5CCOCC5)cc4)c(Cl)cc3[nH]2)cc1 [Compound C-119] | 130 | 237
CC(=O)NC(C)(C)c1ccc(Oc2nc3nc(-c4ccc(N5CCOCC5)cc4)c(Cl)cc3[nH]2)cn1 [Compound D-1] | 430 | 182
CC(=O)NC(C)(C)c1ncc(Oc2nc3nc(-c4ccc(N5CCOCC5)cc4)c(Cl)cc3[nH]2)cn1 [Compound D-2] | 220 | 255
CN1CCc2cc(-c3nc4nc(Oc5ccc(C(C)(C)C(N)=O)cc5)[nH]c4cc3Cl)ccc21 [Compound D-3] | 220 | 192
CC(C)(C(N)=O)c1ccc(Oc2nc3nc(-c4ccc(C5(COC(N)=O)CC5)cc4)c(Cl)cc3[nH]2)cc1 [Compound D-4] | 70 | 207
CC(C)(C(N)=O)c1ccc(Oc2nc3nc(-c4ccc(N5CCOCC5)cc4)c(Cl)cc3[nH]2)cn1 [Compound D-7] | 1600 | 285
CC(=O)NC(C)(C)c1ccc(Oc2nc3nc(-c4ccc(N5CCOCC5)cc4)c(Cl)cc3[nH]2)cc1F [Compound D-8] | 39 | 244
CC(C)(CO)c1ccc(Oc2nc3nc(-c4ccc(N5CCOCC5)cc4)c(Cl)cc3[nH]2)cn1 [Compound D-9] | 380 | 186
CC(C)(C(N)=O)c1ccc(Oc2nc3nc(-c4ccc(N5CCOCC5)cc4)c(Cl)cc3[nH]2)cc1F [Compound D-12] | 69 | 226
CC(=O)NC(C)(C)c1ccc(Oc2nc3nc(-c4ccc(OCCO)cc4)c(Cl)cc3[nH]2)cc1 [Compound D-16] | 8.5 | 280
CC(=O)NC(C)(C)c1ccc(Oc2nc3nc(-c4ccc(CCO)cc4)c(Cl)cc3[nH]2)cc1 [Compound D-17] | 11 | 282
CC(C)(C(=O)O)c1cccc(Oc2nc3nc(-c4ccc(N5CCOCC5)cc4)c(Cl)cc3[nH]2)c1 [Compound D-18] | 21 | 325
CC(=O)NC(C)(C)c1ccc(Oc2nc3nc(-c4ccc(N(C)C)cc4)c(Cl)cc3[nH]2)cc1 [Compound D-21] | 41 | 351

From patent publication US9133186B2, “Hetero ring-fused imidazole derivative having AMPK activating effect” (Shionogi & Co., Ltd., priority 2010, dated 2015)
